Measured values reported in ChEMBL document CHEMBL5113491, “Discovery of N-benzylarylamide derivatives as novel tubulin polymerization inhibitors capable of activating the Hippo pathway” (Eur J Med Chem, 2022).
The source made the active and inactive calls. The rule behind the calls is not given here.

Experiments:
SGC-7901 [1] = assay: Induction of apoptosis in human SGC-7901 cells assessed as increase in cleaved caspase 9 expression at 15 to 45 nmol/L measured after 48 hrs by Western blot analysis; assay type: functional, cell-based; conditions: dose 15-45 nmol/L
SGC-7901 [2] = assay: Induction of apoptosis in human SGC-7901 cells assessed as increase in cleaved caspase 7 expression at 15 to 45 nmol/L measured after 48 hrs by Western blot analysis; assay type: functional, cell-based; conditions: dose 15-45 nmol/L
MGC-803 [3] = assay: Antiproliferative activity against human MGC-803 cells assessed as inhibition of cell growth at 15 to 45 […] by MTT assay; assay type: functional, cell-based; conditions: dose 15-45 µmol/L, time <= 72.0 hrs, TDE = time-dependent effect
Sus scrofa = species on record: Sus scrofa; assay: (§1) Inhibition of porcine brain microtubule polymerization measured after 1 hrs by fluorescence based assay; conditions: DDE = dose-dependent effect
[4] = as §1; set-up: species or system Sus scrofa
SGC-7901 [5] = assay: Downregulation of TAZ protein expression in human SGC-7901 cells measured after 48 hrs by Western blot analysis; assay type: functional, cell-based; conditions: dose 15-45 nmol/L, DDE = dose-dependent effect
SGC-7901 [6] = assay: Inhibition of colony formation in human SGC-7901 cells measured after 7 days; assay type: functional, cell-based; conditions: dose 6-30 nmol/L, time 7.0 day, DDE = dose-dependent effect
MGC-803 [7] = assay: Induction of morphological changes in human MGC-803 cells assessed as cell fragmentation at 15 to 45 nmol/L measured after 48 hrs by bright field microscopic analysis; assay type: functional, cell-based; conditions: dose 15-45 nmol/L
MGC-803 [8] = assay: Induction of apoptosis in human MGC-803 cells assessed as increase in cleaved caspase 7 expression at 15 to 45 nmol/L measured after 48 hrs by Western blot analysis; assay type: functional, cell-based; conditions: dose 15-45 nmol/L
[9] = molecular target: Tubulin beta (Homo sapiens) (UniProt P68371+Q9H4B7+Q13509+P04350+Q3ZCM7+P07437+Q13885+Q9BVA1+Q9BUF5+A6NNZ2); assay: Binding affinity to beta-tubulin colchicine binding site in human MGC-803 cells assessed as inhibition of EBI-beta-tubulin adduct band formation preincubated for 2 hrs followed by EBI addition and measured after 2 hrs by EBI competition based Western blotting analysis; assay type: cell-based; conditions: dose 1-10 µM, time 4.0 hrs, DDE = dose-dependent effect
SGC-7901 [10] = assay: Downregulation of Axl protein expression in human SGC-7901 cells at 15 to 45 nmol/L measured after 48 hrs by Western blot analysis; assay type: functional, cell-based; conditions: dose 15-45 nmol/L
MGC-803 [11] = assay: Induction of apoptosis in human MGC-803 cells assessed as decrease in c-IAP1 protein expression measured after 48 hrs by Western blot analysis; assay type: functional, cell-based; conditions: dose 15-45 nmol/L, DDE = dose-dependent effect
HCT-116 = assay: Antiproliferative activity against human HCT-116 cells assessed as inhibition of cell growth measured after 48 hrs by MTT assay; assay type: functional, cell-based; conditions: HCT-116, 48 h
MGC-803 [12] = assay: Inhibition of colony formation in human MGC-803 cells measured after 7 days; assay type: functional, cell-based; conditions: dose 6-30 nmol/L, time 7.0 day, DDE = dose-dependent effect
MGC-803 [13] = assay: Induction of cell cycle arrest in human MGC-803 cells assessed as increase in G2/M phase cells measured after 24 hrs by flow cytometry; assay type: functional, cell-based; conditions: dose 15-45 nmol/L, DDE = dose-dependent effect
HGC-27 = assay: Antiproliferative activity against human HGC-27 cells assessed as inhibition of cell growth measured after 48 hrs by MTT assay; assay type: functional, cell-based; conditions: HGC-27, 48 h
SGC-7901 [14] = assay: Downregulation of YAP protein expression in human SGC-7901 cells measured after 48 hrs by Western blot analysis; assay type: functional, cell-based; conditions: dose 15-45 nmol/L, DDE = dose-dependent effect
SGC-7901 [15] = assay: Induction of G2/M phase cell cycle arrest in human SGC-7901 cells assessed as decrease in cyclin A1 expression at 15 to 45 nmol/L measured after 48 hrs by Western blot analysis; assay type: functional, cell-based; conditions: dose 15-45 nmol/L
PC-3 = assay: Antiproliferative activity against human PC-3 cells assessed as inhibition of cell growth measured after 48 hrs by MTT assay; assay type: functional, cell-based; conditions: PC-3, 48 h
MCF7 = assay: Antiproliferative activity against human MCF7 cells assessed as inhibition of cell growth measured after 48 hrs by MTT assay; assay type: functional, cell-based; conditions: MCF7, 48 h
Tubulin (Homo sapiens) [16] = molecular target: T1, Tubulin (Homo sapiens) (UniProt P68371+Q9H4B7+P0DPH7+P68366+Q13509+Q71U36+P04350+Q3ZCM7+P07437+P68363+Q9BQE3+Q6PEY2+Q13885+Q9BVA1+Q9BUF5); assay: Induction of microtubule disruption in human MGC-803 cells at 25 nmol/L measured after 48 hrs by DAPI staining based immunofluorescence assay; assay type: cell-based
SGC-7901 [17] = assay: Induction of apoptosis in human SGC-7901 cells assessed as decrease in Mcl-1 protein expression measured after 48 hrs by Western blot analysis; assay type: functional, cell-based; conditions: dose 15-45 nmol/L, DDE = dose-dependent effect
MGC-803 [18] = assay: Induction of G2/M phase cell cycle arrest in human MGC-803 cells assessed as increase in p-Histone H3 expression at 15 to 45 nmol/L measured after 48 hrs by Western blot analysis; assay type: functional, cell-based; conditions: dose 15-45 nmol/L
Huh-7 = assay: Antiproliferative activity against human Huh-7 cells assessed as inhibition of cell growth measured after 48 hrs by MTT assay; assay type: functional, cell-based; conditions: Huh-7, 48 h
MGC-803 [19] = assay: Antiproliferative activity against human MGC-803 cells assessed as inhibition of cell growth measured upto 72 hrs by MTT assay; assay type: functional, cell-based; conditions: dose 15-45 µmol/L, DDE = dose-dependent effect
SGC-7901 [20] = assay: Induction of cell cycle arrest in human SGC-7901 cells assessed as increase in G2/M phase cells at 45 nmol/L measured after 24 hrs by flow cytometry (reference value: 7.04%); assay type: functional
SGC-7901 [21] = assay: Induction of apoptosis in human SGC-7901 cells assessed as decrease in c-IAP1 protein expression measured after 48 hrs by Western blot analysis; assay type: functional, cell-based; conditions: dose 15-45 nmol/L, DDE = dose-dependent effect
MGC-803 [22] = assay: Induction of cell cycle arrest in human MGC-803 cells assessed as increase in G2/M phase cells at 45 nmol/L measured after 24 hrs by flow cytometry (reference value: 19.38%); assay type: functional
MGC-803 [23] = assay: Induction of morphological changes in human MGC-803 cells assessed as increase in proportion of dead cells at 15 to 45 nmol/L measured after 48 hrs by calcein-AM/PI staining based microscopic analysis; assay type: functional, cell-based; conditions: dose 15-45 nmol/L
Tubulin (Homo sapiens) [24] = molecular target: T1, Tubulin (Homo sapiens); assay: Induction of microtubule disruption in human MGC-803 cells measured after 48 hrs by DAPI staining based immunofluorescence assay; assay type: cell-based; conditions: dose 15-45 nmol/L, DDE = dose-dependent effect
KYSE-450 = assay: Antiproliferative activity against human KYSE-450 cells assessed as inhibition of cell growth measured after 48 hrs by MTT assay; assay type: functional, cell-based; conditions: KYSE-450, 48 h
MGC-803 [25] = assay: Induction of morphological changes in human MGC-803 cells assessed as decrease in density at 15 to 45 nmol/L measured after 48 hrs by bright field microscopic analysis; assay type: functional, cell-based; conditions: dose 15-45 nmol/L
[26] = Cytotoxicity against human GES1 cells assessed as reduction in cell viability measured after 48 hrs by MTT assay; assay type: toxicity, cell-based
Tubulin (Homo sapiens) [27] = molecular target: T1, Tubulin (Homo sapiens); assay: Induction of microtubule disruption in human SGC-7901 cells at 25 nmol/L measured after 48 hrs by DAPI staining based immunofluorescence assay; assay type: cell-based
[28] = Induction of cell apoptosis in human MGC-803 cells assessed as increase in apoptotic cells at 45 nmol/L measured after 48 hrs by Annexin V/PI staining based flow cytometric analysis (reference value: 21.96%); assay type: functional
MGC-803 [29] = assay: Activation of LATS in human MGC-803 cells assessed as increase in LATS phosphorylation measured after 48 hrs by Western blot analysis; assay type: cell-based; conditions: filed as activator, dose 15-45 nmol/L, DDE = dose-dependent effect

SMILES: C/C=C/C(=O)N(Cc1ccc(OC)c(O)c1)c1cc(OC)c(OC)c(OC)c1
- Activity (SGC-7901 [1]): Active
- Activity (SGC-7901 [2]): Active
- Activity (MGC-803 [3]): Tde
- inhibition (Sus scrofa): Dde
- IC50 [4]: 920 nM
- Activity (SGC-7901 [5]): Dde
- inhibition (SGC-7901 [6]): Dde
- Activity (MGC-803 [7]): Active
- Activity (MGC-803 [8]): Active
- Activity [9]: Dde
- Activity (SGC-7901 [10]): Active
- Activity (MGC-803 [11]): Dde
- IC50 (HCT-116): 55 nM
- inhibition (MGC-803 [12]): Dde
- Activity (MGC-803 [13]): Dde
- IC50 (HGC-27): 33 nM
- Activity (SGC-7901 [14]): Dde
- Activity (SGC-7901 [15]): Active
- IC50 (PC-3): 55 nM
- IC50 (MCF7): 67 nM
- Activity (Tubulin (Homo sapiens) [16]): Active
- Activity (SGC-7901 [17]): Dde
- Activity (MGC-803 [18]): Active
- IC50 (Huh-7): 60 nM
- Activity (MGC-803 [19]): Dde
- Activity (SGC-7901 [20]): 80.89%
- Activity (SGC-7901 [21]): Dde
- Activity (MGC-803 [22]): 76.97%
- Activity (MGC-803 [23]): Active
- Activity (Tubulin (Homo sapiens) [24]): Dde
- IC50 (KYSE-450): 67 nM
- Activity (MGC-803 [25]): Active
- IC50 at 48 h [26]: 768 nM
- Activity (Tubulin (Homo sapiens) [27]): Active
- Activity [28]: 76.08%
- Activity (MGC-803 [29]): Dde
